Experimental data reported in US8889874B2, “Imidazolone-chalcone derivatives as potential anticancer agent and process for the preparation thereof” (Council of Scientific and Industrial Research, priority 2010, dated 2014).
Where two headings read alike, the source gives them in different places.

How the values were obtained:
Assay in all cases: NCI anticancer screen, SRB assay, 48 h
Format in all cases: cell-based, human
TK-10 (renal) = conditions: Homo sapiens
Procedure: (§1) Some of biological activity studies were carried out at the National Cancer Institute (NCI), Maryland, USA.
(§2) The compounds were evaluated for anticancer activity against fifty three human cancer cells derived from nine cancer types (leukemia cell line, non-small-cell lung cell line, colon cell line, CNS cell line, melanoma cell line, ovarian cell line, prostate cell line, and breast cancer cell line) as shown in Table 1. For each compound, dose response curves for each cell line were measured at a minimum of five concentrations at 10 fold dilutions. A protocol of 48 h continuous drug exposure was used and a sulforhodamine B (SRB) protein assay was used to estimate cell viability or growth.

M14 (melanoma) = conditions: Homo sapiens
Procedure: as §1, §2

KM12 (colon) = conditions: Homo sapiens
Procedure: as §1, §2

UACC-62 (melanoma) = conditions: Homo sapiens
Procedure: as §1, §2

[1] = system: K-562 (leukemia cell line); conditions: Homo sapiens
Procedure: as §1, §2

[2] = system: NCI-H522 (non-small cell lung); conditions: Homo sapiens
Procedure: as §1, §2

OVCAR-8 (ovarian) = conditions: Homo sapiens
Procedure: as §1, §2

TD-47D (breast) = conditions: Homo sapiens
Procedure: as §1, §2

SN12C (renal) = conditions: Homo sapiens, SN12C
Procedure: as §1, §2

UACC-257 (melanoma) = conditions: Homo sapiens
Procedure: as §1, §2

SNB-75 (CNS) = conditions: Homo sapiens
Procedure: as §1, §2

[3] = system: EKVX (non-small cell lung); conditions: Homo sapiens
Procedure: as §1, §2

COLO 205 (colon) = conditions: Homo sapiens, COLO 205
Procedure: as §1, §2

[4] = system: HOP-92 (non-small cell lung); conditions: Homo sapiens
Procedure: as §1, §2

OVCAR-3 (ovarian) = conditions: Homo sapiens
Procedure: as §1, §2

HS 578T (breast) = conditions: Homo sapiens
Procedure: as §1, §2

ACHN (renal) = conditions: Homo sapiens
Procedure: as §1, §2

SK-OV-3 (ovarian) = conditions: Homo sapiens
Procedure: as §1, §2

[5] = system: NCI-H460 (non-small cell lung); conditions: Homo sapiens
Procedure: as §1, §2

OVCAR-5 (ovarian) = conditions: Homo sapiens
Procedure: as §1, §2

SK-MEL-2 (melanoma) = conditions: Homo sapiens
Procedure: as §1, §2

CAKI-1 (renal) = conditions: Homo sapiens
Procedure: as §1, §2

HCT-15 (colon) = conditions: Homo sapiens
Procedure: as §1, §2

[6] = system: NCI-H226 (non-small cell lung); conditions: Homo sapiens
Procedure: as §1, §2

MDA-MB-231/ATCC (breast) = conditions: Homo sapiens
Procedure: as §1, §2

SNB-19 (CNS) = conditions: Homo sapiens
Procedure: as §1, §2

HT29 (colon) = conditions: Homo sapiens
Procedure: as §1, §2

LOX IMVI (melanoma) = conditions: Homo sapiens
Procedure: as §1, §2

[7] = system: NCI-H23 (non-small cell lung); conditions: Homo sapiens
Procedure: as §1, §2

BT-549 (breast) = conditions: Homo sapiens
Procedure: as §1, §2

HCC-2998 (colon) = conditions: Homo sapiens
Procedure: as §1, §2

SF-539 (CNS) = conditions: Homo sapiens
Procedure: as §1, §2

[8] = system: HOP-62 (non-small cell lung); conditions: Homo sapiens
Procedure: as §1, §2

MALME-3M (melanoma) = conditions: Homo sapiens
Procedure: as §1, §2

NCI/ADR-RES (ovarian) = conditions: Homo sapiens, NCI/ADR-RES
Procedure: as §1, §2

SF-268 (CNS) = conditions: Homo sapiens
Procedure: as §1, §2

[9] = 48 h exposure, SRB, read-out: GI50
[10] = read-out: pGI50 (-log of molar concentration causing 50% inhibition of net cell growth) (converted)
[11] = K562, 48 h exposure, SRB, read-out: GI50
[12] = K562, read-out: pGI50 (-log of molar concentration causing 50% inhibition of net cell growth) (converted)
[13] = SN 12C, read-out: pGI50 (-log of molar concentration causing 50% inhibition of net cell growth) (converted)
[14] = COLO205, read-out: pGI50 (-log of molar concentration causing 50% inhibition of net cell growth) (converted)
[15] = HT-29, 48 h exposure, SRB, read-out: GI50
[16] = HT-29, read-out: pGI50 (-log of molar concentration causing 50% inhibition of net cell growth) (converted)
[17] = Malme-3M, read-out: pGI50 (-log of molar concentration causing 50% inhibition of net cell growth) (converted)
[18] = MALME-3M, 48 h exposure, SRB, read-out: GI50
[19] = NCl/ADR-RES, 48 h exposure, SRB, read-out: GI50

COc1ccc(-c2cn(-c3cccc(C(=O)/C=C/c4ccc(O)c(OC)c4)c3)c(=O)[nH]2)cc1 [3b, 1-3-[(E)-3-(4-hydroxy-3-methoxyphenyl)-2-propenoyl]phenyl-4-(4-methoxyphenyl)-2,3-dihydro-1H-2-imidazolone]
GI50 (TK-10 (renal); [9]): 6.08 µM
GI50 (TK-10 (renal); [10]): 6.03 µM
GI50 (M14 (melanoma); [9]): 5.14 µM
GI50 (M14 (melanoma); [10]): 5.13 µM
GI50 (KM12 (colon); [9]): 1770 nM
GI50 (KM12 (colon); [10]): 1780 nM
GI50 (UACC-62 (melanoma); [9]): 3.96 µM
GI50 (UACC-62 (melanoma); [10]): 3.98 µM
GI50 [1, 11]: 2350 nM
GI50 [1, 12]: 2340 nM
GI50 [2, 9]: 3.48 µM
GI50 [2, 10]: 3.47 µM
GI50 (OVCAR-8 (ovarian); [9]): 4.97 µM
GI50 (OVCAR-8 (ovarian); [10]): 5.01 µM
GI50 (TD-47D (breast); [9]): 3.6 µM
GI50 (TD-47D (breast); [10]): 3.63 µM
GI50 (SN12C (renal); [13]): 4.07 µM
GI50 (SN12C (renal); [9]): 4.11 µM
GI50 (UACC-257 (melanoma); [9]): 13.3 µM
GI50 (UACC-257 (melanoma); [10]): 13.2 µM
GI50 (SNB-75 (CNS); [9]): 4.73 µM
GI50 (SNB-75 (CNS); [10]): 4.68 µM
GI50 [3, 9]: 13.4 µM
GI50 [3, 10]: 13.5 µM
GI50 (COLO 205 (colon); [14]): 6.61 µM
GI50 (COLO 205 (colon); [9]): 6.61 µM
GI50 [4, 9]: 2.96 µM
GI50 [4, 10]: 2.95 µM
GI50 (OVCAR-3 (ovarian); [9]): 2700 nM
GI50 (OVCAR-3 (ovarian); [10]): 2690 nM
GI50 (HS 578T (breast); [9]): 4.25 µM
GI50 (HS 578T (breast); [10]): 4.27 µM
GI50 (ACHN (renal); [9]): 3.4 µM
GI50 (ACHN (renal); [10]): 3.39 µM
GI50 (SK-OV-3 (ovarian); [9]): 4.77 µM
GI50 (SK-OV-3 (ovarian); [10]): 4.79 µM
GI50 [5, 9]: 3230 nM
GI50 [5, 10]: 3240 nM
GI50 (OVCAR-5 (ovarian); [9]): 3.38 µM
GI50 (OVCAR-5 (ovarian); [10]): 3.39 µM
GI50 (SK-MEL-2 (melanoma); [9]): 5.54 µM
GI50 (SK-MEL-2 (melanoma); [10]): 5.5 µM
GI50 (CAKI-1 (renal); [9]): 4.99 µM
GI50 (CAKI-1 (renal); [10]): 5.01 µM
GI50 (HCT-15 (colon); [9]): 3.15 µM
GI50 (HCT-15 (colon); [10]): 3.16 µM
GI50 [6, 9]: 4.1 µM
GI50 [6, 10]: 4.07 µM
GI50 (MDA-MB-231/ATCC (breast); [9]): 5.25 µM
GI50 (MDA-MB-231/ATCC (breast); [10]): 5.25 µM
GI50 (SNB-19 (CNS); [9]): 5.84 µM
GI50 (SNB-19 (CNS); [10]): 5.89 µM
GI50 (HT29 (colon); [15]): 3.84 µM
GI50 (HT29 (colon); [16]): 3.8 µM
GI50 (LOX IMVI (melanoma); [9]): 2440 nM
GI50 (LOX IMVI (melanoma); [10]): 2450 nM
GI50 [7, 9]: 2.85 µM
GI50 [7, 10]: 2.82 µM
GI50 (BT-549 (breast); [9]): 4.57 µM
GI50 (BT-549 (breast); [10]): 4.57 µM
GI50 (HCC-2998 (colon); [9]): 2.32 µM
GI50 (HCC-2998 (colon); [10]): 2.34 µM
GI50 (SF-539 (CNS); [9]): 2250 nM
GI50 (SF-539 (CNS); [10]): 2240 nM
GI50 [8, 9]: 5.15 µM
GI50 [8, 10]: 5.13 µM
GI50 (MALME-3M (melanoma); [17]): 4.47 µM
GI50 (MALME-3M (melanoma); [18]): 4.42 µM
GI50 (NCI/ADR-RES (ovarian); [19]): 2.56 µM
GI50 (NCI/ADR-RES (ovarian); [10]): 2.57 µM
GI50 (SF-268 (CNS); [9]): 3.4 µM
GI50 (SF-268 (CNS); [10]): 3.39 µM

O=C(/C=C/c1cccc(O)c1)c1cccc(-n2cc(-c3ccccc3)[nH]c2=O)c1 [4a, 1-3-[(E)-3-(3-hydroxyphenyl)-2-propenoyl]phenyl-4-phenyl-2,3-dihydro-1H-2-imidazolone]
GI50 (M14 (melanoma); [9]): 4.53 µM
GI50 (M14 (melanoma); [10]): 4.57 µM
GI50 (KM12 (colon); [9]): 1830 nM
GI50 (KM12 (colon); [10]): 1820 nM
GI50 (UACC-62 (melanoma); [9]): 3.65 µM
GI50 (UACC-62 (melanoma); [10]): 3.63 µM
GI50 [1, 11]: 3350 nM
GI50 [1, 12]: 3390 nM
GI50 (OVCAR-8 (ovarian); [9]): 2.8 µM
GI50 (OVCAR-8 (ovarian); [10]): 2.82 µM
GI50 (TD-47D (breast); [9]): 4.24 µM
GI50 (TD-47D (breast); [10]): 4.27 µM
GI50 (SN12C (renal); [13]): 3.16 µM
GI50 (SN12C (renal); [9]): 3.14 µM
GI50 (UACC-257 (melanoma); [9]): 7.68 µM
GI50 (UACC-257 (melanoma); [10]): 7.76 µM
GI50 (SNB-75 (CNS); [9]): 12.1 µM
GI50 (SNB-75 (CNS); [10]): 12 µM
GI50 [3, 9]: 15.6 µM
GI50 [3, 10]: 15.5 µM
GI50 (COLO 205 (colon); [14]): 2 µM
GI50 (COLO 205 (colon); [9]): 2.01 µM
GI50 [4, 9]: 5.04 µM
GI50 [4, 10]: 5.01 µM
GI50 (OVCAR-3 (ovarian); [9]): 3080 nM
GI50 (OVCAR-3 (ovarian); [10]): 3090 nM
GI50 (HS 578T (breast); [9]): 6.14 µM
GI50 (HS 578T (breast); [10]): 6.17 µM
GI50 (ACHN (renal); [9]): 2.76 µM
GI50 (ACHN (renal); [10]): 2.75 µM
GI50 (SK-OV-3 (ovarian); [9]): 11.1 µM
GI50 (SK-OV-3 (ovarian); [10]): 11.2 µM
GI50 [5, 9]: 2490 nM
GI50 [5, 10]: 2510 nM
GI50 (OVCAR-5 (ovarian); [9]): 5.44 µM
GI50 (OVCAR-5 (ovarian); [10]): 5.5 µM
GI50 (SK-MEL-2 (melanoma); [9]): 8.26 µM
GI50 (SK-MEL-2 (melanoma); [10]): 8.32 µM
GI50 (CAKI-1 (renal); [9]): 13.3 µM
GI50 (CAKI-1 (renal); [10]): 13.2 µM
GI50 (HCT-15 (colon); [9]): 3.1 µM
GI50 (HCT-15 (colon); [10]): 3.09 µM
GI50 [6, 9]: 24.8 µM
GI50 [6, 10]: 24.5 µM
GI50 (MDA-MB-231/ATCC (breast); [9]): 3.86 µM
GI50 (MDA-MB-231/ATCC (breast); [10]): 3.89 µM
GI50 (SNB-19 (CNS); [9]): 10.9 µM
GI50 (SNB-19 (CNS); [10]): 11 µM
GI50 (HT29 (colon); [15]): 3.33 µM
GI50 (HT29 (colon); [16]): 3.31 µM
GI50 (LOX IMVI (melanoma); [9]): 1850 nM
GI50 (LOX IMVI (melanoma); [10]): 1860 nM
GI50 [7, 9]: 3.35 µM
GI50 [7, 10]: 3.39 µM
GI50 (BT-549 (breast); [9]): 9.32 µM
GI50 (BT-549 (breast); [10]): 9.33 µM
GI50 (HCC-2998 (colon); [9]): 4.09 µM
GI50 (HCC-2998 (colon); [10]): 4.07 µM
GI50 (SF-539 (CNS); [9]): 1980 nM
GI50 (SF-539 (CNS); [10]): 2000 nM
GI50 [8, 9]: 6.93 µM
GI50 [8, 10]: 6.92 µM
GI50 (MALME-3M (melanoma); [17]): 6.17 µM
GI50 (MALME-3M (melanoma); [18]): 6.21 µM
GI50 (NCI/ADR-RES (ovarian); [19]): 3.73 µM
GI50 (NCI/ADR-RES (ovarian); [10]): 3.72 µM
GI50 (SF-268 (CNS); [9]): 4.53 µM
GI50 (SF-268 (CNS); [10]): 4.57 µM
